The target in experiment [1] is GCN2 kinase (Homo sapiens, UniProt Q9P2K8). Kind of experiment: GCN2 enzyme inhibition assay (Transcreener ADP2 fluorescence polarization). In kind it is biochemical. To be noted: compounds of Formula II; 280 μM ATP, 4 nM GCN2 kinase. Put shortly:
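ADP formation read by Transcreener FP after a 1 h, 25 °C kinase reaction containing 280 μM ATP, 200 μM (RS)7 substrate and 4 nM GCN2, pH 7.5 Tris buffer. Compounds (0–8 μM final) were added 10 min before ATP. Percent inhibition gave IC50 and apparent Ki via tight-binding fit.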
In general terms: Polarisation of emitted light reports the rotation of a fluorescent probe.

Experiment [2] addresses intracellular GCN2 (phosphorylation of the GCN2 substrate eIF2α) (Homo sapiens, UniProt Q9P2K8). Kind of experiment: GCN2 cellular inhibition assay (AlphaScreen SureFire P-eIF2α Ser51, borrelidin-treated U2OS cells). The experiment is classed as cell-based. To be noted: compounds of Formula II; biomarker assay, phosphorylated eIF2α Ser51 in borrelidin-treated U2OS cells. The method, boiled down: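 U2OS cells, adhered overnight, received compounds in 4-fold serial dilutions from 40 μM final, then 10 μM borrelidin for 1 h at 37 °C. Lysates were read by AlphaScreen for phospho-eIF2α Ser51; percent inhibition was set against borrelidin-only wells.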

Chain of intracellular GCN2 (phosphorylation of the GCN2 substrate eIF2α) (Q9P2K8 whole entry): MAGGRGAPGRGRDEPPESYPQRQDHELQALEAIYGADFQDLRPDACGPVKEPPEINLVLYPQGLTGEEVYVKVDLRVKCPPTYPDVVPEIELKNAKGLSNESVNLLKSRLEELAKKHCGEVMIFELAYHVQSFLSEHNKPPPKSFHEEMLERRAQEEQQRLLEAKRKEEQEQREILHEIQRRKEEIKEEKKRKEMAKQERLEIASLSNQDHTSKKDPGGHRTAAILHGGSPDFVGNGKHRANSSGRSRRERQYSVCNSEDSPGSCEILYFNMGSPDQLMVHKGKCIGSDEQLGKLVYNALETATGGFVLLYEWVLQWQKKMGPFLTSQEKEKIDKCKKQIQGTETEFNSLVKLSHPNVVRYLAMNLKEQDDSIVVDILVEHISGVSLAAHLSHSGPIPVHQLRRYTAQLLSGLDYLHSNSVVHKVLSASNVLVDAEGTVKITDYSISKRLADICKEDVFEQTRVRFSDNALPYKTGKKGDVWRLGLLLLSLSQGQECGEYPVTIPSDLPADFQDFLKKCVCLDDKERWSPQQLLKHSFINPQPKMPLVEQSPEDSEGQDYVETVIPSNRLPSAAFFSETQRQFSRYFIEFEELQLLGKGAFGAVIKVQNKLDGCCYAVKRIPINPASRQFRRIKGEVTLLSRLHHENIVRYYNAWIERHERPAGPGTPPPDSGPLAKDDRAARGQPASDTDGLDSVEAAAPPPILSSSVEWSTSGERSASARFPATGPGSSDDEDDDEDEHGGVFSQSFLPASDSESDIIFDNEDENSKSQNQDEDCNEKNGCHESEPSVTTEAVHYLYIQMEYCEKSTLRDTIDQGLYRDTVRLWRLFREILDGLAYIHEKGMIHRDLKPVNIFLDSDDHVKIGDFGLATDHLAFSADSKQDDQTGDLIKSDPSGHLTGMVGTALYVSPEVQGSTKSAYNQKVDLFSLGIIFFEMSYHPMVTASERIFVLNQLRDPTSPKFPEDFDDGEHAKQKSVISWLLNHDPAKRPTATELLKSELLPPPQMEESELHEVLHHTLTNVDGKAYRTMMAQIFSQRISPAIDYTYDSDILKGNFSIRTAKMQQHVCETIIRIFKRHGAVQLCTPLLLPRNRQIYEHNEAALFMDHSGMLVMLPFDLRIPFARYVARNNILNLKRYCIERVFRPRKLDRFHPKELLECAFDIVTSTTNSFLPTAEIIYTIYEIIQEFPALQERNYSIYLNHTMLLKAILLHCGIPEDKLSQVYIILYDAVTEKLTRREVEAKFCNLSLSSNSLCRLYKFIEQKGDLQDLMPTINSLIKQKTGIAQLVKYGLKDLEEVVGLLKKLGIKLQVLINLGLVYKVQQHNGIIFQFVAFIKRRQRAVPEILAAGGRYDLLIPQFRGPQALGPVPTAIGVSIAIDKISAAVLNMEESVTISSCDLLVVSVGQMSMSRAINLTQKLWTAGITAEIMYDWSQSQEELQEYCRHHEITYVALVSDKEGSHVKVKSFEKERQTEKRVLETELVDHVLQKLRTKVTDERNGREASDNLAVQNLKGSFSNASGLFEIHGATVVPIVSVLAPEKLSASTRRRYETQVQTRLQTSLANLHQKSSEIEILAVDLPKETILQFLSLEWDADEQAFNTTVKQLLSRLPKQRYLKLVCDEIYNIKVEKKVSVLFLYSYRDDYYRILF
Chain of GCN2 kinase (Q9P2K8 whole entry): as above

The Ki is a measure of affinity in units of concentration, obtained from inhibition or displacement. A low value points to higher affinity. The IC50 is the point on the concentration scale where inhibition reaches its midpoint. In experiment [1], `O=C1NCCC12CCCN(c1cc(-c3cnc4ccc(C(F)F)nn34)ncn1)C2` (stereo not shown) [II-51, 7-(6-(6-(Difluoromethyl)imidazo[1,2-b]pyridazin-3-yl)pyrimidin-4-yl)-2,7-diazaspiro[4.5]decan-1-one] had a Ki of 10 to 1000 nM. Moreover, the IC50 in experiment [2] was 500 to 5000 nM.
For `O=C1CC2(CCN(c3cc(-c4cnc5ccc(C(F)F)nn45)ncn3)CC2)N1` [II-52, 7-(6-(6-(Difluoromethyl)imidazo[1,2-b]pyridazin-3-yl)pyrimidin-4-yl)-1,7-diazaspiro[3.5]nonan-2-one] the same measures were 10 to 1000 nM and above 5000 nM.
For `Cc1cnc(-c2cnc3ccc(C(F)F)nn23)cc1N1CCCC(CNS(C)(=O)=O)C1` (stereo not shown) [II-53, N-((1-(2-(6-(Difluoromethyl)imidazo[1,2-b]pyridazin-3-yl)-5-methylpyridin-4-yl)piperidin-3-yl)methyl)methanesulfonamide] the same measures were below 10 nM and 500 to 5000 nM.
In the same order, the values of `CS(=O)(=O)N1CCC2(CCN(c3cc(-c4cnc5ccc(C(F)F)nn45)ncn3)C2)CC1` [II-54, 2-(6-(6-(Difluoromethyl)imidazo[1,2-b]pyridazin-3-yl)pyrimidin-4-yl)-8-(methylsulfonyl)-2,8-diazaspiro[4.5]decane] are 10 to 1000 nM and 500 to 5000 nM.
For the compound `CC(=O)N1CC2(C1)CN(c1cc(-c3cnc4ccc(C(F)F)nn34)cc(N3CCCC(CNS(C)(=O)=O)C3)n1)C2` (stereo not shown) [II-55, N-((1-(6-(6-Acetyl-2,6-diazaspiro[3.3]heptan-2-yl)-4-(6-(difluoromethyl)imidazo[1,2-b]pyridazin-3-yl)pyridin-2-yl)piperidin-3-yl)methyl)methanesulfonamide], the inhibitory constant (Ki) in experiment [1] is below 10 nM. This compound had an IC50 in experiment [2] below 500 nM.
In the same order, the values of `CS(=O)(=O)N1CCC2(CCCN(c3cc(-c4cnc5ccc(C(F)F)nn45)ncn3)C2)C1` (stereo not shown) [II-56, 7-(6-(6-(Difluoromethyl)imidazo[1,2-b]pyridazin-3-yl)pyrimidin-4-yl)-2-(methylsulfonyl)-2,7-diazaspiro[4.5]decane] are 10 to 1000 nM and 500 to 5000 nM.
For `CC1CN(c2cc(-c3cnc4ccc(C(F)F)nn34)ccn2)CC(CNS(C)(=O)=O)C1(F)F` (stereo not shown) [II-57, N-((1-(4-(6-(Difluoromethyl)imidazo[1,2-b]pyridazin-3-yl)pyridin-2-yl)-4,4-difluoro-5-methylpiperidin-3-yl)methyl)methanesulfonamide] the same measures were below 10 nM and 500 to 5000 nM.
For `CC1CN(c2cc(-c3cnc4ccc(C(F)F)nn34)ccn2)CC(CNS(C)(=O)=O)C1(F)F` (stereo not shown) [II-58, N-((1-(4-(6-(Difluoromethyl)imidazo[1,2-b]pyridazin-3-yl)pyridin-2-yl)-4,4-difluoro-5-methylpiperidin-3-yl)methyl)methanesulfonamide] the same measures were below 10 nM and below 500 nM.
Regarding `CS(=O)(=O)NCC1CCCN(c2cc(-c3cnc4ccc(C(F)F)nn34)ncn2)C1` (stereo not shown) [II-59, N-((1-(6-(6-(Difluoromethyl)imidazo[1,2-b]pyridazin-3-yl)pyrimidin-4-yl)piperidin-3-yl)methyl)methanesulfonamide], in experiment [1], the Ki was below 10 nM. The same compound showed an IC50 in experiment [2] below 500 nM.
For `CNc1cc(N2CCCC(CNS(C)(=O)=O)C2)cc(-c2cnc3ccc(C(F)F)nn23)n1` (stereo not shown) [II-60, N-((1-(2-(6-(Difluoromethyl)imidazo[1,2-b]pyridazin-3-yl)-6-(methylamino)pyridin-4-yl)piperidin-3-yl)methyl)methanesulfonamide] the same measures were below 10 nM and below 500 nM.
In the same order, the values of `CS(=O)(=O)NCC1CCCN(c2cc(-c3cnc4ccc(C(F)F)nn34)cc(Cl)n2)C1` (stereo not shown) [II-61, N-((1-(6-Chloro-4-(6-(difluoromethyl)imidazo[1,2-b]pyridazin-3-yl)pyridin-2-yl)piperidin-3-yl)methyl)methanesulfonamide] are below 10 nM and 500 to 5000 nM.
For `O=C1CN(c2cc(-c3cnc4ccc(C(F)F)nn34)ccn2)CCN1` [II-62, 4-(4-(6-(Difluoromethyl)imidazo[1,2-b]pyridazin-3-yl)pyridin-2-yl)piperazin-2-one] the same measures were 10 to 1000 nM and above 5000 nM.
As for `CS(=O)(=O)NCC1CCCN(c2cc(-c3cnc4ccc(C(F)F)nn34)cc(C(F)(F)F)n2)C1` (stereo not shown) [II-63, N-((1-(4-(6-(Difluoromethyl)imidazo[1,2-b]pyridazin-3-yl)-6-(trifluoromethyl)pyridin-2-yl)piperidin-3-yl)methyl)methanesulfonamide], in experiment [1], the Ki is below 10 nM. Moreover, the half-maximal inhibitory concentration (IC50) in experiment [2] was above 5000 nM.
`CNc1cc(-c2cnc3ccc(C(F)F)nn23)cc(N2CC(C)C(F)(F)C(CNS(C)(=O)=O)C2)n1` (stereo not shown) [II-64, N-((1-(4-(6-(Difluoromethyl)imidazo[1,2-b]pyridazin-3-yl)-6-(methylamino)pyridin-2-yl)-4,4-difluoro-5-methylpiperidin-3-yl)methyl)methanesulfonamide] displayed a Ki in experiment [1] below 10 nM. This compound came in with an IC50 in experiment [2] below 500 nM.
As to `CNc1cc(-c2cnc3ccc(C(F)F)nn23)cc(N2CC(C)C(F)(F)C(CNS(C)(=O)=O)C2)n1` (stereo not shown) [II-65, N-((1-(4-(6-(Difluoromethyl)imidazo[1,2-b]pyridazin-3-yl)-6-(methylamino)pyridin-2-yl)-4,4-difluoro-5-methylpiperidin-3-yl)methyl)methanesulfonamide], the Ki in experiment [1] was below 10 nM. This compound also gave an IC50 in experiment [2] of 500 to 5000 nM.
For `CS(=O)(=O)NCC1CCCN(c2cc(-c3cnc4ccc(C(F)F)nn34)cc(N3CCOCC3)n2)C1` (stereo not shown) [II-66, N-((1-(4-(6-(Difluoromethyl)imidazo[1,2-b]pyridazin-3-yl)-6-morpholinopyridin-2-yl)piperidin-3-yl)methyl)methanesulfonamide], the Ki in experiment [1] is below 10 nM. The IC50 in experiment [2] was in the range of 500 to 5000 nM.
For `CS(=O)(=O)NCC1CCCN(c2cc(-c3cnc4ccc(C(F)F)nn34)cc(N3CC4(CCN4)C3)n2)C1` (stereo not shown) [II-67, N-((1-(4-(6-(Difluoromethyl)imidazo[1,2-b]pyridazin-3-yl)-6-(1,6-diazaspiro[3.3]heptan-6-yl)pyridin-2-yl)piperidin-3-yl)methyl)methanesulfonamide] the same measures were below 10 nM and below 500 nM.
In the same order, the values of `CNc1cc(-c2cnc3ccc(C(F)F)nn23)cc(N2CCC[C@H](CNS(C)(=O)=O)C2)n1` [II-68, (S)—N-((1-(4-(6-(Difluoromethyl)imidazo[1,2-b]pyridazin-3-yl)-6-(methylamino)pyridin-2-yl)piperidin-3-yl)methyl)methanesulfonamide] are below 10 nM and 500 to 5000 nM.
In the same order, the values of `CNc1cc(-c2cnc3ccc(C(F)F)nn23)cc(N2CCO[C@H](CNS(C)(=O)=O)C2)n1` [II-69, (S)—N-((4-(4-(6-(Difluoromethyl)imidazo[1,2-b]pyridazin-3-yl)-6-(methylamino)pyridin-2-yl)morpholin-2-yl)methyl)methanesulfonamide] are below 10 nM and below 500 nM.
`CS(=O)(=O)N1CCC12CCCN(c1cc(-c3cnc4ccc(C(F)F)nn34)ncn1)C2` (stereo not shown) [II-70, 6-(Difluoromethyl)-3-(6-(1-(methylsulfonyl)-1,6-diazaspiro[3.5]nonan-6-yl)pyrimidin-4-yl)imidazo[1,2-b]pyridazine] returned an inhibitory constant (Ki) in experiment [1] of 10 to 1000 nM. In experiment [2], this compound yielded an IC50 above 5000 nM.
In turn, `CNc1cc(-c2cnc3ccc(C(F)F)nn23)cc(N2CCC(F)(F)C(CNS(C)(=O)=O)C2)n1` (stereo not shown) [II-71, N-((1-(4-(6-(Difluoromethyl)imidazo[1,2-b]pyridazin-3-yl)-6-(methylamino)pyridin-2-yl)-4,4-difluoropiperidin-3-yl)methyl)methanesulfonamide] registered a Ki in experiment [1] below 10 nM. The compound also displayed a concentration for half-maximal inhibition (IC50) in experiment [2] of 500 to 5000 nM.
For `CN1CC2(C1)CN(c1cc(-c3cnc4ccc(C(F)F)nn34)cc(N3CCCC(CNS(C)(=O)=O)C3)n1)C2` (stereo not shown) [II-72, N-((1-(4-(6-(Difluoromethyl)imidazo[1,2-b]pyridazin-3-yl)-6-(6-methyl-2,6-diazaspiro[3.3]heptan-2-yl)pyridin-2-yl)piperidin-3-yl)methyl)methanesulfonamide] the same measures were below 10 nM and below 500 nM.
For `CS(=O)(=O)NCC1CCCN(c2cc(-c3cnc4ccc(C(F)F)nn34)cnc2CN)C1` (stereo not shown) [II-73, N-((1-(2-(Aminomethyl)-5-(6-(difluoromethyl)imidazo[1,2-b]pyridazin-3-yl)pyridin-3-yl)piperidin-3-yl)methyl)methanesulfonamide] the same measures were 10 to 1000 nM and above 5000 nM.
In experiment [1], `CNCCOc1cc(-c2cnc3ccc(C(F)F)nn23)cc(N2CCCC(CNS(C)(=O)=O)C2)n1` (stereo not shown) [II-74, N-((1-(4-(6-(Difluoromethyl)imidazo[1,2-b]pyridazin-3-yl)-6-(2-(methylamino)ethoxy)pyridin-2-yl)piperidin-3-yl)methyl)methanesulfonamide] displayed an inhibitory constant (Ki) below 10 nM. The half-maximal inhibitory concentration (IC50) in experiment [2] was in the range of 500 to 5000 nM.
`CC1CN(c2ccnc(-c3cnc4ccc(C(F)F)nn34)c2)CC(CNS(C)(=O)=O)C1(F)F` (stereo not shown) [II-75, N-((1-(2-(6-(Difluoromethyl)imidazo[1,2-b]pyridazin-3-yl)pyridin-4-yl)-4,4-difluoro-5-methylpiperidin-3-yl)methyl)methanesulfonamide] displayed a Ki in experiment [1] below 10 nM. Besides, the half-maximal inhibitory concentration (IC50) in experiment [2] was below 500 nM.
Regarding `FC(F)c1ccc2ncc(-c3ccnc(N4CCOCC4)c3)n2n1` [II-76, 4-(4-(6-(Difluoromethyl)imidazo[1,2-b]pyridazin-3-yl)pyridin-2-yl)morpholine], the Ki in experiment [1] is 10 to 1000 nM. Also, in experiment [2], the IC50 was above 5000 nM.
